We go through 15 compounds from PubChem BioAssay AID1963871 (Molecular Pharmacology Branch, DTP, NCI, 2024).

pIC50: −log10 of the molar value. “And” between values parts separate entries of the source, which are not always exact repeats. Identical values can stand only once.

In the experiment the test system is KRAS-mutant PDC multicell tumor spheroid viability. As to the kind of experiment: Anticancer human tumor 521955-158-R2-J5-PDC patient-derived pancreatic carcinoma cell line growth inhibition [KRAS2]. Particulars: for viability, T/C: stronger effect = lower value. The source says: Multicellular complex tumor spheroid response to RAS pathway inhibitors in combination with a targeted agents in patient-derived cell lines with oncogenic KRAS variants from multiple cancer types
A high-throughput screen of multi-cell type tumor spheroids was designed to identify active combinations of targeted small molecules and KRAS pathway inhibitors. Complex spheroids include a stromal component modeled by human endothelial cells (HUVEC) and fibroblasts modeled by human mesenchymal stem cells (MSCs). The concentration ranges selected for each drug and investigational agent were based upon clinically achievable concentrations if the clinical Cmax of the agent was known.
Compounds. The drugs and investigational agents: BI-3406 (NSC825286), BAY-293 (NSC824723), batoprotafib (TNO155; NSC825523), sotorasib (AMG 510; NSC818433), MRTX1257 (NSC819558), elimusertib (BAY 1895344; NSC800525), molibresib (GSK525762; NSC774829), temuterkib (LY3214996; NSC803410), venetoclax (NSC766270), alisertib (NSC759677), olaparib (NSC753686), talazoparib (NSC767125), erdafitinib (NSC781556), ipatasertib (NSC767898), cabozantinib (NSC761068), nintedanib (NSC756659), abemaciclib (NSC768073), docetaxel (NSC628503), trametinib (NSC758246), and sapanisertib (NSC764658) were obtained from the National Cancer Institute (NCI) Developmental Therapeutics Program Chemical Repository. The FDA-approved anticancer drug set is available from the Developmental Therapeutics Program. […] The stock solutions were prepared in dimethyl sulfoxide (DMSO, Sigma-Aldrich, St. Louis, MO, cat. D2650) at 800-fold the tested concentration and stored at -70 degrees C prior to their use. All drugs and investigational agents were tested over a range starting from a high concentration at or near the clinical Cmax and decreasing in half-log increments. If the clinical Cmax for an agent had not been determined, the highest concentration tested was 10 microM.
Cell Culture. All cells were maintained in an incubator at 37 degrees C and 5% CO2 with 95% humidity. The PDC lines were cultured according to standard operating procedures established by the NCI PDMR (https://pdmr.cancer.gov/sops/default.htm). Briefly, all PDCs were thawed and cultured in Matrigel-coated flasks prepared with a working solution of 1X Ham's F-12 nutrient mix, without supplementation (Invitrogen, Waltham, MA, cat. 11765054), 100 U/mL penicillin-streptomycin (Invitrogen, cat. 15140122), and 2.5% Matrigel (Corning Inc., Corning, NY, cat. 354248) for the first three passages. All PDCs were cultured in complete DMEM/F-12 media containing advanced DMEM/F-12 (Invitrogen, cat. 12634028), 4.9% defined fetal bovine serum, heat inactivated (HyClone Laboratories Inc., Logan, UT, cat. SH30070.03HI), 389 ng/mL hydrocortisone (Sigma-Aldrich, cat. H4001), 9.7 ng/mL human EGF recombinant protein (Invitrogen, cat. PHG0313), 23.4 microg/mL adenine (Sigma-Aldrich, cat. A2786), 97.3 U/mL penicillin-streptomycin (Invitrogen, cat. 15140122), 1.9 mM L-glutamine (Invitrogen, cat. 25030081), and 9.7 microM Y-27632 dihydrochloride (Tocris Bioscience, Bristol, United Kingdom, cat. 1254). The PDCs were cultured in complete DMEM/F12 media without 9.7 microM Y-27632 dihydrochloride for at least two passages prior to the screen. The established cell line HOP-62 was cultured in RPMI 1640 medium, HEPES (Invitrogen, cat. 22400105) with 10% defined fetal bovine serum (HyClone Laboratories Inc., cat. SH30070.03) and 2 mM L-glutamine (Invitrogen, cat. 25030081). The pooled donor HUVEC were cultured in endothelial cell growth medium 2 (PromoCell, Heidelberg, Germany, cat. C-22011) and the hMSC were cultured in mesenchymal stem cell growth medium 2 (PromoCell, cat. C-28009). For all experiments, HUVEC and hMSC were used at passages </=5, while the malignant cell lines were used at passages </=15. […]
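Also: viability read after seven days of drug exposure.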

Broadly, the viability, T/C is the result in the treated group divided by that in the control group, in per cent. By IC50 is commonly meant the concentration needed to halve the response being measured. `CC(=O)Nc1cccc(-n2c(=O)n(C3CC3)c(=O)c3c(Nc4ccc(I)cc4F)n(C)c(=O)c(C)c32)c1`: the viability, T/C (compound 0.0001 µM) was 77.7% [middle of 5 runs]; the viability, T/C (compound 0.000316 µM) was 47.2% [middle of 5 runs]; the viability, T/C (compound 0.001 µM) was 36.5% [middle of 5 runs]; the viability, T/C (compound 0.00316 µM) is 29.1% [middle of 5 runs]; the viability, T/C (compound 0.01 µM) is 24.1% [middle of 5 runs]; the viability, T/C (compound 0.0316 µM) is 17.4% [middle of 4 runs]. Under “curve of compound”, the IC50 was 0.337 nM [middle of 5 runs].
For orientation: pIC50 means the negative decadic logarithm of the IC50, by convention in mol/L. Regarding `CC(=O)OC12COC1CC(O)C1(C)C(=O)C(O)C3=C(C)C(OC(=O)C(O)C(NC(=O)OC(C)(C)C)c4ccccc4)CC(O)(C(OC(=O)c4ccccc4)C21)C3(C)C` (stereo unspecified), the viability, T/C by setting is: (compound 0.01 µM) 22.3% [middle of 5 runs]; (compound 0.0316 µM) 15.3% [middle of 5 runs]; (compound 0.1 µM) 14.2% [middle of 5 runs]; (compound 0.316 µM) 15.2% [middle of 5 runs]; (compound 1 µM) 18.1% [middle of 5 runs]; (compound 3.16 µM) 21.9% [middle of 5 runs]. The pIC50 (curve of compound) was more than 8.00.
For `CC(C)NCC(C(=O)N1CCN(c2ncnc3c2C(C)CC3O)CC1)c1ccc(Cl)cc1` (stereo unspecified), the viability, T/C by setting is: (compound 0.0316 µM) 100% [middle of 5 runs]; (compound 0.1 µM) 102% [middle of 5 runs]; (compound 0.316 µM) 83.8% [middle of 5 runs]; (compound 1 µM) 80.8% [middle of 5 runs]; (compound 3.16 µM) 84.4% [middle of 5 runs]; (compound 10 µM) 66.7% [middle of 5 runs]. The pIC50 (curve of compound) is less than 5.00.
Consider `CC(C)n1nc(-c2ccc3oc(N)nc3c2)c2c(N)ncnc21`, for which the viability, T/C is, setting by setting: (compound 0.000316 µM) 101% [middle of 5 runs]; (compound 0.001 µM) 87.6% [middle of 5 runs]; (compound 0.00316 µM) 66.9% [middle of 5 runs]; (compound 0.01 µM) 48.9% [middle of 5 runs]; (compound 0.0316 µM) 35.8% [middle of 5 runs]; (compound 0.1 µM) 25.9% [middle of 5 runs]. Under “curve of compound”, the IC50 was 9.42 nM [middle of 5 runs].
On to `CC1(C)CCC(CN2CCN(c3ccc(C(=O)NS(=O)(=O)c4ccc(NCC5CCOCC5)c([N+](=O)[O-])c4)c(Oc4cnc5[nH]ccc5c4)c3)CC2)=C(c2ccc(Cl)cc2)C1`, for which the viability, T/C by setting is: (compound 0.0316 µM) 99.7% [middle of 5 runs]; (compound 0.1 µM) 104% [middle of 5 runs]; (compound 0.316 µM) 105% [middle of 5 runs]; (compound 1 µM) 111% [middle of 5 runs]. Further, the IC50 (curve of compound) was 6.08 µM [middle of 5 runs].
In the case of `CC1COCCN1c1cc(-c2ccnn2C)c2ccnc(-c3ccn[nH]3)c2n1` (stereo unspecified), the viability, T/C is 97.7% [middle of 5 runs] (compound 0.01 µM); 12.3% [middle of 5 runs] (compound 0.1 µM); 13.6% [middle of 5 runs] (compound 0.316 µM); 21.9% [middle of 5 runs] (compound 1 µM); 25.1% [middle of 5 runs] (compound 3.16 µM). The IC50 (curve of compound) was 34.4 nM [middle of 5 runs].
Turning to `CC1OCC2(CCN(c3cnc(Sc4ccnc(N)c4Cl)c(N)n3)CC2)C1N` (stereo unspecified), under “compound 0.0316 µM”, the viability, T/C is 84.3% and 94% and 83.1%. Further, the pIC50 runs as follows: (compound alone, run of 09/02/2021) < 5.00 and 5.39; (curve of compound) less than 5.00.
Take `CCN1CCN(Cc2ccc(Nc3ncc(F)c(-c4cc(F)c5nc(C)n(C(C)C)c5c4)n3)nc2)CC1`: the viability, T/C (compound 0.00316 µM) was 99% [middle of 5 runs]; the viability, T/C (compound 0.01 µM) was 98.1% [middle of 5 runs]; the viability, T/C (compound 0.0316 µM) was 87.7% [middle of 5 runs]; the viability, T/C (compound 0.1 µM) was 90.7% [middle of 5 runs]; the viability, T/C (compound 0.316 µM) is 99.1% [middle of 5 runs]; the viability, T/C (compound 1 µM) is 87.5% [middle of 5 runs]. The pIC50 (curve of compound) is less than 6.00.
As for `CCNC(=O)CC1N=C(c2ccc(Cl)cc2)c2cc(OC)ccc2-n2c(C)nnc21` (stereo unspecified), the viability, T/C is 98.9% [middle of 5 runs] (compound 0.0316 µM); 92.1% [middle of 5 runs] (compound 0.1 µM); 63% [middle of 5 runs] (compound 0.316 µM); 45% [middle of 5 runs] (compound 1 µM); 37.6% [middle of 5 runs] (compound 3.16 µM); 34.2% [middle of 5 runs] (compound 10 µM). Further, for the setting “curve of compound”, the IC50 was 692 nM [middle of 5 runs].
For the compound `CN(C)C/C=C/C(=O)Nc1cc2c(Nc3ccc(F)c(Cl)c3)ncnc2cc1O[C@H]1CCOC1`, the viability, T/C (compound 0.000316 µM) is 105% [middle of 5 runs]; the viability, T/C (compound 0.001 µM) is 98.6% [middle of 5 runs]; the viability, T/C (compound 0.00316 µM) was 96.5% [middle of 5 runs]; the viability, T/C (compound 0.01 µM) is 92.4% [middle of 5 runs]; the viability, T/C (compound 0.0316 µM) was 87.8% [middle of 5 runs]. Also, the pIC50 (curve of compound) was less than 7.00.
For `COc1cc(Nc2ncc3c(n2)-c2ccc(Cl)cc2C(c2c(F)cccc2OC)=NC3)ccc1C(=O)O`, the viability, T/C by setting is: (compound 0.0316 µM) 50.2% [middle of 5 runs]; (compound 0.1 µM) 39.8% [middle of 5 runs]; (compound 0.316 µM) 45.3% [middle of 5 runs]; (compound 1 µM) 47.9% [middle of 5 runs]; (compound 3.16 µM) 46.5% [middle of 5 runs]; (compound 10 µM) 41.2% [middle of 5 runs]. Besides, the pIC50 (curve of compound) is more than 7.50.
Take `COc1cc(OC)cc(N(CCNC(C)C)c2ccc3ncc(-c4cnn(C)c4)nc3c2)c1`: the viability, T/C runs as follows: (compound 0.0316 µM) 94.3% [middle of 5 runs]; (compound 0.1 µM) 99.1% [middle of 5 runs]; (compound 0.316 µM) 105% [middle of 5 runs]; (compound 1 µM) 123% [middle of 5 runs]; (compound 10 µM) 0.56% [middle of 5 runs]. In addition, the IC50 (curve of compound) was 6.06 µM [middle of 4 runs].
In the case of `Cn1nccc1Nc1nccc(-c2cc3c(s2)C(C)(C)N(CCN2CCOCC2)C3=O)n1`, the viability, T/C is, setting by setting: (compound 0.0316 µM) 91.2% [middle of 5 runs]; (compound 0.1 µM) 86.3% [middle of 5 runs]; (compound 0.316 µM) 60.6% [middle of 5 runs]; (compound 1 µM) 51% [middle of 5 runs]; (compound 3.16 µM) 32.7% [middle of 5 runs]; (compound 10 µM) 22.6% [middle of 5 runs]. The IC50 (curve of compound) is 902 nM [middle of 5 runs].
Take `Cn1ncnc1[C@H]1c2n[nH]c(=O)c3cc(F)cc(c23)N[C@@H]1c1ccc(F)cc1`: the viability, T/C (compound 0.000316 µM) was 104% [middle of 5 runs]; the viability, T/C (compound 0.001 µM) was 104% [middle of 5 runs]; the viability, T/C (compound 0.00316 µM) is 97.1% [middle of 5 runs]; the viability, T/C (compound 0.01 µM) was 90.9% [middle of 5 runs]; the viability, T/C (compound 0.0316 µM) was 90% [middle of 5 runs]; the viability, T/C (compound 0.1 µM) was 82.8% [middle of 5 runs]. In addition, the pIC50 (curve of compound) is less than 7.00.
Consider `O=C(c1cc(Cc2n[nH]c(=O)c3ccccc23)ccc1F)N1CCN(C(=O)C2CC2)CC1`, for which the viability, T/C is, setting by setting: (compound 0.0316 µM) 99% [middle of 5 runs]; (compound 0.1 µM) 95.1% [middle of 5 runs]; (compound 0.316 µM) 93.8% [middle of 5 runs]; (compound 1 µM) 94.8% [middle of 5 runs]; (compound 3.16 µM) 89.3% [middle of 5 runs]; (compound 10 µM) 61% [middle of 5 runs]. Also, where the note is “curve of compound”, the pIC50 was less than 5.00.
